A short description of this series: Solubility remark on the isolated sodium salt. The format is physicochemical. The following applies: sodium salt form, remark in the synthesis. How it is done:
1.2 ml of water and 30.5 mg of lithium hydroxide (5 equivalents) are added to a solution of 118 mg of the compound obtained in the preceding Stage 1 in 1.5 ml of methanol. The reaction medium is stirred at 50° C. for 2 hours and then concentrated under reduced pressure. The residue obtained is taken up in ether and the insoluble material is removed. The ethereal solution, after several treatments with acid and base, results in the formation of a precipitate, which is isolated.

On to `O=C(O)Cc1ccc(-c2ccc(-c3csc(C(=O)NCCN4CCOCC4)c3)cc2)cc1.[Na+]` [Example 146, {4′-[5-(2-Morpholin-4-ylethylcarbamoyl)thiophen-3-yl]biphenyl-4-yl}-acetic acid, sodium salt], for which the solubility entry is “very low solubility”.

For the origin of these results see patent US20040072871A1, “Novel thiophene derivatives, their process of preparation and the pharmaceutical compositions which comprise them” (priority 2002, published 2004).
